This is an account of results in US20240408279A1, “SUPRAMOLECULAR-COVALENT COMPOSITE SLURRY FOR CARTILAGE REPAIR” (Northwestern University, priority 2021, published 2024).

In assay [1] the test system is osteochondral defect in the femoral trochlear groove. In words: Osteochondral defect repair, femoral trochlear groove (ICRS macroscopic and modified O'Driscoll histology scoring). The format is in vivo, sheep. The following applies: Trochlea, TGFβ (+), control = TGFβ-1 in saline; for median Macroscopic Score: 12-point scale; for median Histology Score: 24-point scale. As for the experimental part:
(§1) Osteochondral defect filling and regeneration: Skeletally mature female sheep were anesthetized and arthrotomy was performed bilaterally. One 3-4 mm deep and 7 mm diameter osteochondral defect was made in the medial femoral condyle of each stifle and one defect of the same dimensions in the femoral trochlear groove of each stifle. In one stifle, both defects were immediately filled with the PA/HA hybrid with 1 μg/mL TGFβ-1 preloaded as indicated. In the contralateral stifle, saline was immediately added to both defects, which was supplemented with TGFβ-1 at the same concentration as used in the material treated stifle. A calcium chloride solution was then dripped on top of each defect. […] allowed the sheep to stand on the hindlimbs. Samples of each sheep's synovial fluid was antiseptically drawn immediately prior to surgery and one week following surgery. After euthanasia, gross appearance of the defect areas was assessed the ICRS macroscopic scoring system (Ref. 59; incorporated by reference in its entirety) (Table 4). The samples were then fixed in formalin, decalcified the samples and prepared sections which were stained with H&E, with safranin O, or immunohistochemically for collagen II. Sections were scored using a modified O'Driscoll scoring system (Ref. 60; incorporated by reference in its entirety) (Table 5).
(§2) Preparation of material for surgical implant: Heat treated PA solutions prepared at 19 mM were combined with a 10 μg/mL TGFβ-1 solution (R&D Systems) dissolved in a 0.1% BSA, 4 mM HCl buffer or with the buffer alone at a 9:1 ratio. The combination was mixed by pipetting and kept on ice for 1 h. 900 μL of the mixed solution was added to 36 mg of crosslinked HA particles prepared under sterile conditions and allowed to hydrate for 1 h. The hybrid material was packed into a 1 mL syringe with a 19-gauge needle attached and kept on ice until use during surgery.
Animal study design: Animal work was performed at the University of Wisconsin, School of Veterinary Medicine, and all procedures were approved by the Institutional Animal Use and Care Committee. Thirty-six mature female sheep ranging in age from 2-7 (mean=3.7±1.7) years weighing between 60 and 100 (mean=74±8.3) kg were used in this study. […]

Assay [2] relates to osteochondral defect in the medial femoral condyle. Kind of assay: Osteochondral defect repair, medial femoral condyle (ICRS macroscopic and modified O'Driscoll histology scoring). It is filed as in vivo, sheep. The following applies: TGFβ (+); for median Macroscopic Score: 12-point scale; for median Histology Score: 24-point scale. As for the experimental part:
as §1, §2
Animal study design: Animal work was performed at the University of Wisconsin, School of Veterinary Medicine, and all procedures were approved by the Institutional Animal Use and Care Committee. Thirty-six mature female sheep ranging in age from 2-7 (mean=3.7±1.7) years weighing between 60 and 100 (mean=74±8.3) kg were used in this study. Animals were divided into 6 groups: (1) 1 pilot sheep sacrificed at 1 week to assess material retention, (2) 6 sheep sacrificed at 4 weeks treated with PA and TGFβ-1, with 1 sheep sacrificed prior to 4 weeks due to patellar luxation and excluded from the analysis, (3) 6 sheep sacrificed at 4 weeks with PA, but without TGFβ-1 treatment, (4) 14 sheep sacrificed at 12 weeks with PA and TGFβ-1 treatment, with 4 sheep sacrificed prior to 12 weeks due to patellar luxation and excluded from analysis, (5) 6 sheep sacrificed at 12 weeks with PA but without TGFβ-1 treatment, with 2 sacrificed prior to 12 weeks due to patellar luxation and excluded from analysis, and (6) two sheep sacrificed at 24 weeks with PA and TGFβ-1 treatment.
Surgical technique: Prior to surgery the sheep were fasted for 24 h, and withheld water for 12 h. Sheep were administered a dose of Xylazine (0.1-0.22 mg/kg IM) in their pen to sedate them for transport to the surgical suite as well as a pre-operative dose of buprenorphine (0.0006-0.01 mg/kg IM) for analgesia. Sheep were then induced with ketamine-midazolam (2-10 mg/kg-0.1-0.3 mg/kg IM) and immediately intubated. Once intubated the sheep were maintained on isoflurane (0-4%) in 100% O2. At this time, a dose of Procaine Penicillin-G (10,000-20,000 IU/kg) IM was administered. Using aseptic techniques, a medial stifle arthrotomy was performed on both limbs of each sheep. In each stifle, one osteochondral defect was made in the medial femoral condyle and a second was made in the femoral trochlear groove using a Stryker EHD variable speed surgical drill and a cannulated drill bit. For the 24-week group, defects were made in the condyle only and not the trochlear groove. […]

[3] abbreviates: 4 weeks, control = TGFβ-1 in saline.
The mark [4] stands for this setting: 12 weeks, control = TGFβ-1 in saline.

“Control: in TGFβ (+) groups: contralateral control defects filled with 1 μg/mL TGFβ-1 in saline solution”: the “median Macroscopic Score” value was 5.7 in assay [1] (4 weeks); 10.33 in assay [1] (12 weeks); 5 in assay [2] (setting [3]); 7 in assay [2] (setting [4]); 9 in assay [2] (24 weeks). The “median Histology Score” value is listed as 10.3 in assay [1] (4 weeks); 11 in assay [1] (12 weeks); 9.7 in assay [2] (setting [3]); 10 in assay [2] (setting [4]); 15.3 in assay [2] (24 weeks).
